Results reported in publication PMC8781472, “Two Novel Palbociclib-Resorcinol and Palbociclib-Orcinol Cocrystals with Enhanced Solubility and Dissolution Rate” (Pharmaceutics, 2021).

Key:
[1] = design: method as in doi:10.1021/acs.cgd.7b01281; settings: cited from earlier work
[2] = In vitro cytotoxicity MTT assay; assay type: cell-based, human; settings: human, normal HUVEC cell line
Experimental: (§1) The human umbilical vein endothelial cell line (HUVEC) was a gift from Prof. F Y Chen (Xiangya Hospital, Changsha, China). The cells were grown in DMEM (Hyclone, Logan, UT, USA) supplied with 10% fetal bovine serum (Hyclone, Logan, UT, USA) and 1% penicillin/streptomycin mixture. Furthermore, all the cells were cultured at a 37 ℃, 5% CO2 humidified incubator. The cytotoxicity activity of compounds PAL, PAL-RES and PAL-ORC for normal HUVEC cell line was assessed via the MTT assay. The cells were cultured at a density of 8000 cells/well in a 96 well plate. Five different concentrations (0, 0.1, 1, 10 and 100 μM) of compounds PAL, PAL-RES and PAL-ORC in DMSO were subsequently added to the wells then incubated under 5% CO2 at 37 °C for 48 h; 50 μL of MTT (2 mg/mL) was added to each well, and the cells were incubated for another 4 h. Next, the liquid in each well was removed, and DMSO (150 μL) was added. The absorbance (OD values) at 490 nm was measured by a microplate reader (Biotek, SYNERGY HTX, VT, USA). Each concentration was tested in triplicate.

[3] = Powder dissolution (paddle method); assay type: physicochemical; settings: for Equilibrium dissolution: powder, 500 mL phosphate buffer pH 6.8, 37 °C, 50 rpm, 50 mg PAL equivalent
Experimental: […] PAL, PAL-RES, and PAL-ORC were ground and passed through a 200 mesh sieve. In total, 50 mg of PAL or a PAL equivalent amount of cocrystal were weighed for the powder dissolution experiment. At 5, 10, 15, 30, 45, 60, 90, 120, 180, 240, 300, 360, 480, 600, 720, 1080, 1440 min, taken out 1 mL of the dissolved sample and […] with an equal volume of fresh medium in order to maintain a constant dissolution system. The PAL concentration was measured using the same method as the IDR part. All the experiments were conducted in triplicate.

[4] = In vivo pharmacokinetic experiments in rats; design: species or system Sprague−Dawley rats; settings: SD rats, single oral dose equivalent to 5 mg/kg PAL, plasma PAL
Experimental: The PK profiles of PAL, PAL-RES and PAL-ORC were determined in adult male Sprague−Dawley rats (SD rats, 200–250 g), which were commercially obtained from Pizhou Oriental Breeding Co., Ltd. (Xuzhou, China). All the experiments were approved by the Ethics and Experimental Animal Committee of Jiangsu Ocean University (Project identification code: 202100021). The rats were housed in standard cages with constant temperature and humidity, and a 12 h light−dark cycling condition was set. Before the commencement of the studies, all the rats were fasted overnight with free access to water for 12 h. Fifteen animals were randomly assigned to three groups (n = 5/group) and intragastrically administrated with PAL, PAL-RES, and PAL-ORC in 0.5% (w/v) aqueous sodium methyl cellulose solution, respectively. A dose equivalent to 5 mg/kg body weight of PAL was used to conduct the evaluation. After the oral administration, blood collections were performed at designated time points (0.5, 1, 2, 4, 6, 8, 12, 24 and 48 h) using centrifuge tubes containing EDTA-K2. Next, the plasma samples were obtained from the whole blood by centrifuging at 4000 rpm for 10 min. The plasma samples were prepared for HPLC analysis by washing with 300 μL methanol, and the PAL concentration was measured using the same method as described in “2.10. Intrinsic dissolution rate (IDR) experiments”. Moreover, the PK parameters were calculated by Phoenix WinNonlin 6.0 pharmacokinetic software package (Certara, Princeton, NJ, USA).

[5] = Intrinsic dissolution rate (IDR) experiments; assay type: physicochemical; settings: for Dissolution rate compared with PAL: hydrochloric acid solution pH 1.0; for Increase of dissolution rate compared with PAL: phosphate buffer pH 6.8
Experimental: In the IDR experiment, one side of the compact was sealed with melted wax, and the other side was not covered to contact with the solution. The temperature was set to 37 ℃, the paddle speed was 100 rpm, the samples were collected at the corresponding time points (phosphate buffer pH 6.8: 60, 120, 180, 240, 300, 360 min; acetic acid buffer pH 4.5: 1, 2, 3, 5, 7, 10 min; hydrochloric acid solution pH 1.0: […]) and supplemented with the same volume of culture base. Filtered the supernatant (0.22 μm) to remove undissolved particles. The PAL concentration was measured by an LC-20AD HPLC system (Shimadzu, Kyoto, Japan). At 40 °C, an Agilent ZORBAX Eclipse XDB-C18 column (250 mm × 4.6 mm, 5 μm, Agilent, Santa Clara, CA, USA) and a UV detector with a wavelength of 356 nm were used to separate the palbociclib. The mobile phase contained 0.1% acetic acid in methanol and water (80:20, v/v), the flow rate was 0.8 mL/min, and the isocratic elution was 10 min. The results were stated as the average of three replicated experiments.

[6] = Accelerated stability testing, analysed by PXRD; assay type: physicochemical; settings: 40 °C/75% RH for 3 months
Experimental: For the physical stability studies, the powder samples of the cocrystals were exposed to accelerated condition (YSEI, China) with 40 °C/75% RH for three months; subsequently, the samples were analyzed by PXRD.

[7] = Stress testing (high temperature, high humidity, strong illumination), analysed by PXRD; assay type: physicochemical; settings: high temperature (60 °C), high humidity (92.5% RH), strong illumination (4500 LX)
Experimental: The cocrystals were subjected to a high temperature (60 °C), high humidity (92.5% RH), and strong illumination (4500 lx) condition respectively for stress testing experiments. The samples were analyzed by PXRD to detect possible solid-state transformation at 0, 5, 10 days.

[8] = system: HUVEC; test: In vitro cytotoxicity MTT assay; assay type: cell-based, human; settings: normal HUVEC cell line, 48 h
Experimental: as §1

Equilibrium dissolution [3] | Dissolution rate compared with PAL [5] | Increase of dissolution rate compared with PAL [5] | Physical stability (PXRD, phase transformation) [6] | Time physically stable under stress testing conditions [7] | Compound | IC50 at 48 h [2] | IC50 [8] | further results
 |  |  |  |  | O=C1CCc2ccc(OCCCCN3CCN(c4cccc(Cl)c4Cl)CC3)cc2N1 [ARI, aripiprazole] |  |  | Maximum aripiprazole concentration [1]: 1.6 mg/L
 |  |  |  |  | Cc1cc(O)cc(O)c1 [ORC, orcinol] | > 100 µM |  | 
20.09% |  |  |  |  | CC(=O)c1c(C)c2cnc(Nc3ccc(N4CCNCC4)cn3)nc2n(C2CCCC2)c1=O [PAL, Palbociclib] | 2.4 ± 0.07 µM |  | Powder dissolution under acidic conditions ([3]; pH 1.0 or 4.5): dissolves completely at pH 1.0 or 4.5 within five minutes; Vd [4]: 20.48 L/kg; AUC(0-t) ([4]; male, Sprague-Dawley, rat): 2620 ng·h/mL; Cmax ([4]; male, Sprague-Dawley, rat): 347 ng/mL; MRT ([4]; male, Sprague-Dawley, rat): 5.36 h; Tmax ([4]; male, Sprague-Dawley, rat): 4 h; half-life ([4]; male, Sprague-Dawley, rat): 19.9 h
49.93% | 1.2 times | two times | physically stable | at least 10 days | CC(=O)c1c(C)c2cnc(Nc3ccc(N4CCNCC4)cn3)nc2n(C2CCCC2)c1=O.Cc1cc(O)cc(O)c1 [PAL-ORC] |  | 0.85 ± 0.13 µM | Intrinsic dissolution rate (slope of fitted IDR line) ([5]; acetate buffer pH 4.5, 37 °C, 100 rpm): 0.53 mg/min/cm^2
60.22% | 1.2 times | three times | physically stable | at least 10 days | CC(=O)c1c(C)c2cnc(Nc3ccc(N4CCNCC4)cn3)nc2n(C2CCCC2)c1=O.Oc1cccc(O)c1 [PAL-RES] |  | 4.02 ± 0.07 µM | Change of dissolution rate compared with PAL ([5]; acetate buffer pH 4.5): only a slight increase in dissolution rate
 |  |  |  |  | Oc1cccc(O)c1 [RES, Resorcinol] | > 100 µM |  | 
